Measurements reported in ChEMBL document CHEMBL5674860, “Optimized Dual-Glo Assay to identify co-culture-induced drug vulnerabilities in 3D CRC models” (2024).

Columns and labels:
Format in all cases: functional, Homo sapiens
Parameters in all cases: dose or concentration left out as unconfirmed
Colon cancer organoid [1] = experiment: Optimized Dual-Glo assay to identify co-culture induced drug vulnerabilities using donated chemical probes and chemogenomics kinase set in O20 CRC organoid and F20 CAF mono and co-culture. […] Cell viability is reported both mono and co-culture models.
Colon cancer organoid [2] = experiment: Optimized Dual-Glo assay to identify co-culture induced drug vulnerabilities using donated chemical probes and chemogenomics kinase set in O14 CRC organoid and F14 CAF mono and co-culture. […] Cell viability is reported both mono and co-culture models.
Colon cancer organoid [3] = experiment: Optimized Dual-Glo assay to identify co-culture induced drug vulnerabilities using donated chemical probes and chemogenomics kinase set in O06 CRC organoid and F06 CAF mono and co-culture. […] Cell viability is reported both mono and co-culture models.
[4] = Culture type Co-Culture, Transduced with Lucferase2-P2A-EGFP lentivirus
[5] = Culture type Co-Culture, Transduced with Renilla-dsRed lentivirus
[6] = Culture type Mono-Culture, Transduced with Lucferase2-P2A-EGFP lentivirus
[7] = Culture type Mono-Culture, Transduced with Renilla-dsRed lentivirus

Row | SMILES | Cell Viability (Colon cancer organoid [1]; [4]) | Cell Viability (Colon cancer organoid [1]; [5]) | Cell Viability (Colon cancer organoid [1]; [6]) | Cell Viability (Colon cancer organoid [1]; [7]) | Cell Viability (Colon cancer organoid [2]; [4]) | Cell Viability (Colon cancer organoid [2]; [5]) | Cell Viability (Colon cancer organoid [2]; [6]) | Cell Viability (Colon cancer organoid [2]; [7]) | Cell Viability (Colon cancer organoid [3]; [4]) | Cell Viability (Colon cancer organoid [3]; [5]) | Cell Viability (Colon cancer organoid [3]; [6]) | Cell Viability (Colon cancer organoid [3]; [7])
1 | Cc1c(N2CCCC2)nc2ccc(Br)cc2c1C(=O)NC[C@H](CCC(=O)O)c1ccccc1Cl [BAY-6672] | 83.0644% | 119.315% | 90.6805% | 98.6918% | 130.472% | 109.165% | 108.929% | 91.644% | 132.373% | 142.298% | 78.4477% | 99.1733%
2 | COc1ccc(Oc2cc(NCCC(F)(F)F)c3ncc(-c4ccc(C(=O)NC5CC5)c(C)c4)n3n2)c(F)c1F [BAY-1217389] | 10.1003% | 184.891% | 6.085% | 72.716% | 15.963% | 131.783% | 28.3238% | 88.2574% | 5.893% | 100.303% | 6.114% | 52.2962%
3 | CC(=O)N1CCC(c2ccc(C(=O)NC3=NCCN3)cc2C(F)(F)F)CC1 [BI 0054] | 121.714% | 122.015% | 116.125% | 107.845% | 129.436% | 116.761% | 105.472% | 102.083% | 128.003% | 143.254% | 114.863% | 104.942%
4 | CN(C)C(=O)Cn1cc(-c2nc(C3(c4ccc(-c5cnc(N)nc5)cc4)CC3)no2)cn1 [BI 0153] | 119.435% | 91.9766% | 120.102% | 113.624% | 85.1631% | 102.426% | 124.477% | 95.7431% | 114.895% | 116.335% | 110.704% | 85.1331%
5 | COc1ccc2c(O[C@@H]3C[C@H]4C(=O)N[C@]5(C(=O)O)CC5/C=C\CCCCC[C@H](NC(=O)OC5CCCC5)C(=O)N4C3)cc(-c3csc(NC(=O)C(C)C)n3)nc2c1C (stereo partly specified) [BI 1230] | 95.5192% | 162.279% | 102.506% | 120.15% | 105.071% | 113.929% | 106.581% | 104.774% | 113.549% | 148.301% | 94.169% | 100.65%
6 | O=C(N[C@H]1CCCCC/C=C\C2C[C@@]2(C(=O)O)NC(=O)[C@@H]2C[C@@H](Oc3ccncc3)CN2C1=O)OC1CCCC1 (stereo partly specified) [BI 1675] | 103.036% | 110.731% | 113.647% | 94.6025% | 104.235% | 108.175% | 94.4705% | 89.8487% | 118.509% | 153.84% | 83.7502% | 91.3607%
7 | CCOCCn1cc(C(=O)Nc2ccc(-n3nc(-c4cccnc4)cc3C(F)(F)F)cn2)ccc1=O [BI 1935] | 76.3275% | 148.205% | 94.4512% | 98.9549% | 119.66% | 103.733% | 123.828% | 100.697% | 92.9458% | 113.636% | 108.149% | 105.749%
8 | C[C@H](NC(=O)c1cnc2n1[C@](C)(Cc1ccc(C#N)cc1)C(=O)N2c1cc(Cl)c(F)c(Cl)c1)C(=O)NC1(c2ccccn2)CC1 [BI 1950] | 121.807% | 97.0159% | 112.646% | 94.255% | 114.581% | 100.802% | 131.753% | 112.137% | 123.241% | 151.567% | 111.279% | 104.666%
9 | CC(C)(C#Cc1ccc(NC(=O)COc2ccccc2C(=O)c2ccccc2)c(Cl)c1)C(=O)O [BI 2439] | 147.968% | 100.148% | 97.854% | 121.686% | 91.5107% | 105.147% | 118.998% | 103.818% | 98.7582% | 98.9732% | 147.342% | 109.263%
10 | Cc1c(NC(=O)COc2ccc(Cl)cc2C(=O)c2cc(F)cc(C(F)(F)F)c2)ccc(C(=O)O)c1F [BI 2540] | 66.158% | 145.555% | 86.1051% | 111.497% | 79.1363% | 91.7704% | 120.435% | 101.06% | 131.143% | 97.0984% | 110.069% | 102.946%
11 | O=C(NC[C@@H]1[C@H]2CN(C(=O)OCc3cc(C(F)(F)F)cc(C(F)(F)F)c3)C[C@@H]12)c1ccc2[nH]nnc2c1 [BI 2545] | 135.058% | 115.933% | 103.58% | 122.062% | 75.1961% | 105.32% | 137.829% | 80.7794% | 124.688% | 144.467% | 99.0945% | 89.0013%
12 | Cc1nccc(COC(=O)N2C[C@@H]3[C@@H](CNC(=O)c4ccc5[nH]nnc5c4)[C@@H]3C2)n1 [BI 3017] | 107.028% | 99.2728% | 143.356% | 100.924% | 93.935% | 119.587% | 137.729% | 94.2589% | 136.883% | 128.292% | 95.2629% | 74.0867%
13 | Cn1nc(C(=O)NCc2ccc(C(=O)O)cc2)cc1-c1ccc2[nH]ccc2c1 [BI 4395] | 100.657% | 92.7545% | 82.9051% | 93.5086% | 58.8492% | 93.1183% | 115.617% | 91.6294% | 92.221% | 114.828% | 85.3335% | 79.5775%
